Reference: patent publication US20180303798A1 (Ares Trading S.A., priority 2012, published 2018)

Key:
HEC-1-A cell line [1] = experiment: Apoptosis assay (Propidium Iodide staining and FACS, sub-G1 events); type: cell-based, human; details: 24 hours
Procedure: (§1) HEC-1A cells were obtained by ATCC and culture following instructions of the provider.
(§2) HEC-1-A is an epithelial stabilized cell line isolated by H. Kuramoto from adenocarcinoma patient (21), which provide a valuable model to study endometrial epithelial cell in vitro (22).
The apoptosis (% cell death) of the endometrial cells is a physiological phenomenon generally observed at 10-20% rate during cell culture.
Apoptosis levels were assayed by Propidium Iodide staining and FACS analysis. Percentage of sub-G1 events is shown for one of two experiments performed.

HEC-1-A cell line [2] = experiment: Antioxidant activity assay (ROS by FACS); type: cell-based, human
Procedure: They were used in different concentrations (i.e. 40 nM, 80 nM, 170 nM and 340 nM, corresponding respectively to 9.4×10^−9 g/ml, 18×10^−9 g/ml, 40×10^−9 g/ml and 80×10^−9 g/ml).
as §1, §2
Reactive Oxidative Substances (ROS) were measured by FACS as previously described by Italiano et al. (23) in two independent replicates.

endometrial tissue = experiment: In vitro culture of endometrium with melatonin, visualization of pinopodes by electron microscopy (SEM); type: cell-based, human; details: co-culture from 3 to 5 days of endometrial tissue with permanent addition of melatonin
Procedure: The melatonin and the culture medium used are the same as those used for the in vivo study.
It has been used a field emission at high resolution electron microscope, FE HITACHI S 4000 model, operating at […].
Soon after retrieval from the patient, small pieces of endometrial tissue of about 1 mm in size have been placed in a fixing solution composed of paraformaldehyde 1% and glutaraldehyde 0.5% in buffer cacodylate 0.1 M pH 7.2 for 3 hours.
After this fixing the pieces are washed in PBS 20 min×3 times (1 hour total) and then the post fixing is carried out in a solution of osmium tetroxide 2% and potassium ferrocyanide 2.5%.
The preparation is kept in the dark for 3 hours to be then accurately washed rotating in PBS, with 4 replacements of 20 min each.
It follows dehydration of the samples of tissue with acetone in ascending succession with 3 replacements in 1 hour for each gradation 50%-70%-80%-90%-95% and 2 replacements with pure acetone. […]
The samples are fixed through a special electrically conductive double sided adhesive and for their arrangement two very thin needles are used and the preparation is ready to be observed with scanning electron microscope (SEM). […]

[3] = test system: patients subjected to assisted fertilization; experiment: Clinical study 1: multi-centre study, endometrial irrigation with melatonin in culture medium at oocyte retrieval; type: in vivo, human
Description: (§3) Said culture medium is normally used to improve cleavage, differentiation and expansion in vitro of blastocyst. The medium contains D-glucose, all the 20 essential L-amino acids, L-taurine, Gentamicin, human serum albumin, calcium lactate, calcium pantothenate; sodium chloride, sodium bicarbonate and sodium pyruvate; potassium chloride, potassium phosphate; magnesium chloride, magnesium sulfate; purified water. Further characteristics of the culture medium: • pH: 7.5-7.8 (use of bicarbonate buffer) • Osmolarity: 280-290 mOsm/kg • Endotoxins: <0.4 EU/ml • MEA: ≥80% • 2) physiological solution (Clinical Trial 2)
In the logistic regression, OR corresponds to the antilogarithm on a natural basis of the regression coefficient β associated with each covariate in the regression model.
The value thus calculated expresses therefore the advantage obtained through each procedure, irrespective of the other conditions.
The two-tailed confidence intervals at 95% (IF95%) of the OR have been calculated through the formula of […]
For the latter, the CI (confidence interval or trust interval) has been calculated through statistical analysis (IMPRUN. TXT) of linear regression with more variables of 95%.

Ishikawa cells = details: effect produced through MT2 receptors; reference (7); cited from earlier work
[4] = test system: patients subjected to assisted reproduction; experiment: Clinical study 2: single centre study, endometrial washing with melatonin in sterile physiological solution; type: in vivo, human
Description: as §3
Restricted criteria of inclusion have been used for selecting the patient population involved in the studies: • 3) age ≥20 and <44 years • 4) body mass index (BMI) ≥20 and ≤28 kg/m^2 • 5) Basal FSH≤19 UI/l • 6) Male and female factors
The second clinical study with a single prospective centre involved 64 patients in the group of control and 92 patients in the group of study.
In the case of the physiological solution, the catheter can be pre-filled with physiological solution supplemented with melatonin.
The catheter has been introduced in the internal uterine orifice with the same steps through which the operator carries out the conventional embryo-transfer (ET).
The single centre study involved 64 patients in the group of control and 92 patients in the group of study.
The primary endpoint of the study is the rate of clinical pregnancies (fetal heart) due to embryonic transfer (ET); the secondary endpoint is the rate of ongoing pregnancies and aborts.

[5] = 170 nM (40 ng/ml) compound, H2O2 200 mcg/ml
[6] = number of patients out of 92 ET

Row | Compound | effect on apoptosis (% cell death, sub-G1) (HEC-1-A cell line [1]; up to concentration of 170 nM) | protection of cell line from oxidation (ROS, FACS) (HEC-1-A cell line [2]; [5]) | anti-oxidative effect (ROS, FACS) (HEC-1-A cell line [2]; dose increased up to 340 nM, H2O2 200 mcg/ml, data not shown) | effect on apoptosis (% cell death, sub-G1) (HEC-1-A cell line [1]; at 170 and 340 nM) | effect on apoptosis (% cell death, sub-G1) (HEC-1-A cell line [1]; all the concentrations tested (80, 170, 340 nM)) | pinopodes (SEM) with respect to the culture of control (endometrial tissue) | number of pregnancies with respect to the other two groups ([3]; irrigation or washing with melatonin vs physiological solution and no irrigation) | result of endometrial irrigation at lower concentration ([3]; preceding studies with one third and the half of the final concentration 10×10^−9 g/ml, not shown data) | proliferation of atypical endometrial cells (Ishikawa) (Ishikawa cells) | anti-oxidative effect (ROS, FACS) (HEC-1-A cell line [2]; 170 nM (40 ng/ml) compound, H2O2 20 mcg/ml) | rate of clinical pregnancies and ongoing pregnancies vs the group of control ([4]; endometrial washing with solutions containing melatonin, infertile female population) | Aborts ([4]; group of study) | BHCG Positive (on total of ET) ([4]; group of study, 92 ET) | rate of ongoing pregnancies (Ongoing Pregnancy/ET) ([4]; group of study, 92 ET) | rate of clinical pregnancies (Clinical Pregnancy/ET) ([4]; group of study, 92 ET, melatonin 10×10^−9 g/ml in physiological solution) | BHCG Positive (on total of ET), No [4, 6] | Clinical Pregnancy/ET, No [4, 6] | Ongoing Pregnancy/ET, No [4, 6] | Aborts, No ([4]; number of patients, group of study)
1 | COc1cc2c(CCNC(C)=O)c[nH]c2cc1O [6-hydroxy-melatonin, 6-hydroxymelatonin] | no effect on apoptosis | does not | anti-oxidative effect of this analogue is reached | – | – | – | – | – | – | – | – | – | – | – | – | – | – | – | –
2 | COc1ccc2cccc(CCNC(C)=O)c2c1 [agomelatine] | – | continued to protect cell line from oxidation | – | protective effect | – | – | – | – | – | – | – | – | – | – | – | – | – | – | –
3 | COc1ccc2[nH]cc(CCNC(C)=O)c2c1 [melatonin, N-acetyl-5-methoxytryptamine] | – | continued to protect cell line from oxidation | – | – | protective effect on apoptosis | unquestionable increase of pinopodes | double the number of pregnancies | without giving the same results | inhibits proliferation | same anti-oxidative effect | double | 11.8% | 44.6% | 32.6% | 37% | 41 | 34 | 30 | 4
